# Assay results from US5204338A, “Oxalylamino acid derivatives and their use as medicaments for inhibiting proline hydroxylase” (Hoechst Aktiengesellschaft, priority 1990, dated 1993).
# Where a name gives a salt, the structure may show the parent alone.
# Assays:
# calvaria culture = test: calvaria culture: reduction of the hydroxyproline/proline quotients in metabolic labeling with ^14 C-proline; assay type: cell-based; settings: 50% reduction of the hydroxyproline/proline quotients in metabolic labeling with ^14 C-proline; esters
# Source text: The inhibitory activity can also be determined in cell or tissue culture. To do this, fibroblasts or other collagen-producing cells or calvaria or other collagen-producing organs can be employed. The inhibitory activity of substances according to the invention in calvaria culture is collated in Table 3. The concentration is indicated which leads to a 50% reduction of the hydroxyproline/proline quotients in metabolic labeling with ^14 C-proline (IC50).
# prolyl hydroxylase = prolyl hydroxylase (Homo sapiens, UniProt P13674); test: enzyme test: hydroxylation of underhydroxylated collagen with prolyl hydroxylase in the presence of iron(II) ions, α-keto glutarate and ascorbate; assay type: biochemical; settings: concentration which leads to an 80% inhibition of enzyme activity (the value is indicated as Ki); salts
# Chain of prolyl hydroxylase (P13674 18-534): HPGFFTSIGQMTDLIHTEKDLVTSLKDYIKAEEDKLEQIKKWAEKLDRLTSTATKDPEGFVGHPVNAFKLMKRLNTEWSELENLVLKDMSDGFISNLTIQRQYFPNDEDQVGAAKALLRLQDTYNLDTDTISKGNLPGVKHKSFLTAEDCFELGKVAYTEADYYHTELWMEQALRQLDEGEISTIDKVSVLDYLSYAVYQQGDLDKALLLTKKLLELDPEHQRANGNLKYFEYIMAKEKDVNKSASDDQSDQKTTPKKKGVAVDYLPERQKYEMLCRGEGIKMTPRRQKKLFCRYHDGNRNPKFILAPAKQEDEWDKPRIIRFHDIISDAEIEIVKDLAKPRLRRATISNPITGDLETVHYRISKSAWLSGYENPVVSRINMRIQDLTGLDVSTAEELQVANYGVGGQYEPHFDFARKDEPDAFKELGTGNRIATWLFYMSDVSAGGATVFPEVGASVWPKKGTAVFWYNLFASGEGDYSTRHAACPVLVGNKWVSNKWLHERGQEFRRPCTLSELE
# Chain of prolyl hydroxylase (P07237 18-508 partner): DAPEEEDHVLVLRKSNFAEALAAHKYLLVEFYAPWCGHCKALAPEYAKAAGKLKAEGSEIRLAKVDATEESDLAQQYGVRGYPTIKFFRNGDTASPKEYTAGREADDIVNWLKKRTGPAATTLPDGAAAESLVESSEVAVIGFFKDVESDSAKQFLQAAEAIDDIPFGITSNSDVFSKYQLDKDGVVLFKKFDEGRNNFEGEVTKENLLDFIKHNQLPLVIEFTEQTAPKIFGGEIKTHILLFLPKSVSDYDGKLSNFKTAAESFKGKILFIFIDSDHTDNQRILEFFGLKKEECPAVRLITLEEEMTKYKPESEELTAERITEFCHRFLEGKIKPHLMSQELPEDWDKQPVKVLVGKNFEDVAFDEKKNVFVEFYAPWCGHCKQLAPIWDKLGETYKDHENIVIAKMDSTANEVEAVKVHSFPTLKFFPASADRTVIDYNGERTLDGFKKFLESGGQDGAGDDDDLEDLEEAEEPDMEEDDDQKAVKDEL
# [1] = tested on: Clq biosynthesis of macrophages; settings: W. Muller et al., FEBS Lett. 90, 218 (1978); cited from earlier work
IC50 (calvaria culture),Ki (prolyl hydroxylase),SMILES,further results
–,10 µM,"O=C(O)CNC(=O)C(=O)O [Example 10, (N-Oxalyl)-L-glycine dipotassium salt]",–
–,40 µM,C[C@H](NC(=O)C(=O)O)C(=O)O [dipotassium salt],–

# Further lines, the molecule ahead of its results:
SMILES,IC50 (calvaria culture),Ki (prolyl hydroxylase),further results
"COC(=O)C(=O)N[C@@H](C)C(=O)OC [Example 1, (N-Oxalyl)-L-alanine dimethyl ester]",350 µM,–,–
"COC(=O)CNC(=O)C(=O)OC [Example 3, (N-Oxalyl)-L-glycine dimethyl ester]",2 µM,–,–
"c1ccc(-c2ccccn2)nc1 [α, α-dipyridyl]",–,–,inhibition of Clq biosynthesis [1]: inhibition of Clq biosynthesis of macrophages
